For one series, the system named is HT29 cells. Put plainly: Sensitisation of HT29 cells to SN38 (Alamar blue cell growth). In kind it is cell-based, human. To be noted: HT29 cells. As for the experimental part:
Studies were carried out to test the sensitising effect of compounds of the invention on the ability of the DNA damaging compound 7-ethyl-10-hydroxycamptothecin (SN38), an active metabolite of the anti-cancer drug irinotecan, to inhibit cell growth in HT29 cells.
The following protocol was used:
(a) HT29 cells were seeded in 96-well plates at a concentration of 3000 cells per well and allowed to adhere overnight prior to addition of compound or vehicle control.
(b) SN38 was prepared from a 10 mM DMSO stock to give a final concentration range of 1 μM, 300 nM, 100 nM, 30 nM, 10 nM, 3 nM, 1 nM, and vehicle control.
(c) Test compounds were prepared from 10 mM DMSO stocks to typically give a final concentration range of 3 μM, 1 μM, 0.3 μM. 0.1 μM, 0.03 μM and vehicle control. The final DMSO content was 0.4%.
(d) Test compounds were incubated with the cells for 72 h at 37° C. 5% CO2 in a humidified atmosphere.
(e) Alamar blue 10% (v/v) was then added and incubated for a further 6 h, and fluorescent product detected using the BMG FLUOstar plate reader.
(f) Data were analysed using a 4-parameter logistic equation in GraphPad Prism.
Sensitisation is determined by the enhancement in IC50 of SN38 by the addition of the Chk-1 kinase inhibitor. In the protocol described above, the IC50 for SN-38 is determined the presence of varying doses of the Chk-1 inhibitor. The fold shift represents a decrease in IC50 for SN-38 at a dose of Chk-1 inhibitor that has no effect by itself.
Background: Alamar Blue is a resazurin reagent that responds to reducing activity.

The target of the next series is Chk-1 kinase (Homo sapiens (Human), UniProt O14757). The series can be described thus: Chk-1 kinase inhibiting activity (33P-ATP filter assay, CHKtide substrate). Format: biochemical. As for the experimental part:
The compounds of the invention were tested for activity against Chk-1 kinase using the materials and protocols set out below.
Base Reaction buffer: 20 mM Hepes (pH 7.5), 10 mM MgCl2, 1 mM EGTA, 0.02% Brij35, 0.02 mg/ml BSA, 0.1 mM Na3VO4, 2 mM DTT, 1% DMSO
*Required cofactors are added individually to each kinase reaction
(i) Prepare indicated substrate in freshly prepared Base Reaction Buffer
(ii) Deliver any required cofactors to the substrate solution above
(iii) Deliver indicated kinase into the substrate solution and gently mix
(iv) Deliver compounds in DMSO into the kinase reaction mixture
(v) Deliver ^33P-ATP (specific activity 0.01 μCi/μl final) into the reaction mixture to initiate the reaction.
(vi) Incubate kinase reaction for 120 minutes at room temperature
(vii) Reactions are spotted onto P81 ion exchange paper (Whatman #3698-915)
(viii) Wash filters extensively in 0.1% phosphoric acid.
(ix) Dry filters and measure counts in scintillation counter
Recombinant full length construct, N-terminal GST tagged, purified from insect cells.
No special measures were taken to activate this kinase.
Final concentration in assay=0.5 nM
Peptide sequence: [[…]]
Final concentration in assay=20 μM
No additional cofactors are added to the reaction mixture

Where [1] appears, read: Chk-1 kinase, Table 3, read-out: IC50.
The mark [2] stands for this setting: ranges given, read-out: IC50 values against Chk-1 kinase.

Results on 24 compounds are retold here after patent publication US8716287B2, “Pharmaceutical compounds” (Sentinel Oncology Limited, priority 2010, dated 2014).

SMILES strings stand for the structures. Counter-ions that a name gives are not always drawn. Like-named read-outs stand apart in the source and are kept apart here.

Chk-1 kinase, sequence (O14757 whole entry): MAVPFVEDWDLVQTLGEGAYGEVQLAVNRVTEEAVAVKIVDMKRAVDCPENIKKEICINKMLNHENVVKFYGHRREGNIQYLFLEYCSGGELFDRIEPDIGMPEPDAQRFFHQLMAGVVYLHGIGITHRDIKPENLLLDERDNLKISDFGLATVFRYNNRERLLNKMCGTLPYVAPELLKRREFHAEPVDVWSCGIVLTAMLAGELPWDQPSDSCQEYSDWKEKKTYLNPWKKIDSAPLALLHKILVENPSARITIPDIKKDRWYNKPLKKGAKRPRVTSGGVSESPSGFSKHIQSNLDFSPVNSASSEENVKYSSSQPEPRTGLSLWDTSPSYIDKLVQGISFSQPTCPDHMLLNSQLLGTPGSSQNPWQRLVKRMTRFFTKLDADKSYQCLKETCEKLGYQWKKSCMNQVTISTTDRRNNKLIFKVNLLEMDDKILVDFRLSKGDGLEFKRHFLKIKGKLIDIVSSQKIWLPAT

As usually defined, the IC50 is the concentration at which inhibition is half-maximal. Take `COc1cc(CNCc2ccc(F)cc2)ccc1NC(=O)Nc1cnc(C#N)cn1` [Example 57, 1-(5-Cyano-pyrazin-2-yl)-3-{4-[(4-fluoro-benzylamino)-methyl]-2-methoxy-phenyl}-urea hydrochloride]: the “fold shift in the IC50 value of SN38” value in the series on HT29 cells (test compound at 1 μM) is given as “two”; in the series with HT29 cells (test compound at 3 μM), “greater than ten”. In addition, the IC50 on Chk-1 kinase (setting [1]) was 8.9 nM; on Chk-1 kinase (setting [2]) it was less than 10 nM.

Turning to `COc1cccc([C@H](C)NCCc2cc(OC)c(NC(=O)Nc3cnc(C#N)cn3)cc2Cl)c1` [Example 65, 1-(5-Chloro-2-methoxy-4-{2-[(S)-1-(3-methoxy-phenyl)-ethylamino]-ethyl}-phenyl)-3-(5-cyano-pyrazin-2-yl)-urea hydrochloride], the figures for the half-maximal inhibitory concentration (IC50) at Chk-1 kinase (setting [1]) and at Chk-1 kinase (setting [2]) were 0.73 nM and less than 10 nM, respectively.

For `C[C@@H](NCCc1ccc(NC(=O)Nc2cnc(C#N)cn2)cc1Cl)c1ccc(F)cc1` [Example 24, 1-(3-Chloro-4-{2-[(R)-1-(4-fluoro-phenyl)-ethylamino]-ethyl}-phenyl)-3-(5-cyano-pyrazin-2-yl)-urea hydrochloride], the IC50 on Chk-1 kinase (setting [1]) is 13 nM; on Chk-1 kinase (setting [2]), 10 to 100 nM.

On to `COc1cc(CCNCc2ccc(F)cc2)ccc1NC(=O)Nc1cnc(C)cn1` [Example 27, 1-{4-[2-(4-Fluoro-benzylamino)-ethyl]-2-methoxy-phenyl}-3-(5-methyl-pyrazin-2-yl)-urea hydrochloride], for which, in the series with HT29 cells (test compound at 3 μM), the “fold shift in the IC50 value of SN38” value was “three”. Also, the values for the IC50 at Chk-1 kinase (setting [1]) and on Chk-1 kinase (setting [2]) were 33 nM and 10 to 100 nM, respectively.

Take `N#Cc1cnc(NC(=O)Nc2ccc(CCNCc3cccc(N4CCOCC4)c3)c(Cl)c2)cn1` [Example 39, 1-{3-Chloro-4-[2-(3-morpholin-4-yl-benzylamino)-ethyl]-phenyl}-3-(5-cyano-pyrazin-2-yl)-urea]: in the series on HT29 cells (test compound at 3 μM), the “fold shift in the IC50 value of SN38” value is on record as “three”. Further, at Chk-1 kinase (setting [1]), the IC50 turned out to be 12 nM.

As to `COc1ccccc1CNCCc1ccc(NC(=O)Nc2cnc(C#N)cn2)cc1Cl` [Example 16, 1-{3-Chloro-4-[2-(2-methoxy-benzylamino)-ethyl]-phenyl}-3-(5-cyano-pyrazin-2-yl)-urea], the “fold shift in the IC50 value of SN38” value in the series with HT29 cells (test compound at 1 μM) is “two”. Also, the results for the IC50 at Chk-1 kinase (setting [1]) and at Chk-1 kinase (setting [2]) were 13 nM and 10 to 100 nM, respectively.

Regarding `N#Cc1cnc(NC(=O)Nc2cccc(CCNCc3ccc(F)cc3)c2)cn1` [Example 34, 1-(5-Cyano-pyrazin-2-yl)-3-{3-[2-(4-fluoro-benzylamino)-ethyl]-phenyl}-urea], in the series on HT29 cells (test compound at 3 μM), the “fold shift in the IC50 value of SN38” value is listed as “three”. Also, the IC50 at Chk-1 kinase (setting [1]) was found to be 69 nM.

Regarding `N#Cc1cnc(NC(=O)Nc2ccc(CCNCc3ccc(F)cc3F)c(Cl)c2)cn1` [Example 5, 1-{3-Chloro-4-[2-(2,4-difluoro-benzylamino)-ethyl]-phenyl}-3-(5-cyano-pyrazin-2-yl)-urea], in the series with HT29 cells (test compound at 3 μM), the “fold shift in the IC50 value of SN38” value is listed as “three”. Moreover, the values for the 50% inhibitory concentration (IC50) on Chk-1 kinase (setting [1]) and at Chk-1 kinase (setting [2]) were 38 nM and 10 to 100 nM, respectively.

On to `COc1cc(CCN[C@H](C)c2ccc(F)cc2)ccc1NC(=O)Nc1cnc(C#N)cn1` [Example 43, 1-(5-Cyano-pyrazin-2-yl)-3-(4-{2-[(R)-1-(4-fluoro-phenyl)-ethylamino]-ethyl}-2-methoxy-phenyl)-urea], for which the figures for the IC50 at Chk-1 kinase (setting [1]) and on Chk-1 kinase (setting [2]) were 3.3 nM and less than 10 nM, respectively.

As for `COc1cc(CNCc2ccc(F)cc2)c(Cl)cc1NC(=O)Nc1cnc(C#N)cn1` [Example 63, 1-{5-Chloro-4-[(4-fluoro-benzylamino)-methyl]-2-methoxy-phenyl}-3-(5-cyano-pyrazin-2-yl)-urea hydrochloride], the results for the IC50 at Chk-1 kinase (setting [1]) and at Chk-1 kinase (setting [2]) were 9.8 nM and less than 10 nM, respectively.

As to `COc1cc(CCNCc2ccc(N3CCNCC3)cc2)c(Cl)cc1NC(=O)Nc1cnc(C#N)cn1` [Example 64, 1-{5-Chloro-2-methoxy-4-[2-(4-piperazin-1-yl-benzylamino)-ethyl]-phenyl}-3-(5-cyano-pyrazin-2-yl)-urea hydrochloride], the 50% inhibitory concentration (IC50) at Chk-1 kinase (setting [1]) is 0.03 nM; at Chk-1 kinase (setting [2]) it was less than 10 nM.

In the case of `N#Cc1cnc(NC(=O)Nc2ccc(CCNCCc3ccc(F)cc3F)c(Cl)c2)cn1` [Example 28, 1-(3-Chloro-4-{2-[2-(2,4-difluoro-phenyl)-ethylamino]-ethyl}-phenyl)-3-(5-cyano-pyrazin-2-yl)-urea], the half-maximal inhibitory concentration (IC50) on Chk-1 kinase (setting [1]) was 47 nM; on Chk-1 kinase (setting [2]) it was 10 to 100 nM.

For the compound `COc1cc(CCNCc2ccc(F)cc2F)ccc1NC(=O)Nc1cnc(C#N)cn1` [Example 30, 1-(5-Cyano-pyrazin-2-yl)-3-{4-[2-(2,4-difluoro-benzylamino)-ethyl]-2-methoxy-phenyl}-urea], the IC50 on Chk-1 kinase (setting [1]) was 6.4 nM; at Chk-1 kinase (setting [2]), less than 10 nM.

Turning to `CCOc1cc(CCNCc2ccc(F)cc2)c(Cl)cc1NC(=O)Nc1cnc(C#N)cn1` [Example 45, 1-{5-Chloro-2-ethoxy-4-[2-(4-fluoro-benzylamino)-ethyl]-phenyl}-3-(5-cyano-pyrazin-2-yl)-urea hydrochloride], the IC50 on Chk-1 kinase (setting [1]) was 1.2 nM; on Chk-1 kinase (setting [2]), less than 10 nM.

Regarding `COc1cc(CCN[C@@H](C)c2ccc(N3CCNCC3)cc2)c(Cl)cc1NC(=O)Nc1cnc(C#N)cn1` [Example 52, 1-(5-Chloro-2-methoxy-4-{2-[(S)-1-(4-piperazin-1-yl-phenyl)-ethylamino]-ethyl}-phenyl)-3-(5-cyano-pyrazin-2-yl)-urea hydrochloride], the figures for the IC50 on Chk-1 kinase (setting [1]) and on Chk-1 kinase (setting [2]) were 0.13 nM and less than 10 nM, respectively.

`CC(C)Oc1cc(CCNCc2ccc(F)cc2)c(Cl)cc1NC(=O)Nc1cnc(C#N)cn1` [Example 46, 1-{5-Chloro-4-[2-(4-fluoro-benzylamino)-ethyl]-2-isopropoxy-phenyl}-3-(5-cyano-pyrazin-2-yl)-urea hydrochloride]: the IC50 on Chk-1 kinase (setting [1]) is 0.32 nM; on Chk-1 kinase (setting [2]) it was less than 10 nM.

On to `COc1cccc(CNCc2ccc(NC(=O)Nc3cnc(C#N)cn3)c(OC)c2)c1` [Example 61, 1-(5-Cyano-pyrazin-2-yl)-3-{2-methoxy-4-[(3-methoxy-benzylamino)-methyl]-phenyl}-urea hydrochloride], for which the IC50 on Chk-1 kinase (setting [1]) is 7.5 nM; at Chk-1 kinase (setting [2]) it was less than 10 nM.

Take `COc1cc(CNCc2ccccc2)c(Cl)cc1NC(=O)Nc1cnc(C#N)cn1` [Example 56, 1-[4-(Benzylamino-methyl)-5-chloro-2-methoxy-phenyl]-3-(5-cyano-pyrazin-2-yl)-urea hydrochloride]: the concentration for half-maximal inhibition (IC50) on Chk-1 kinase (setting [1]) is 2.8 nM; at Chk-1 kinase (setting [2]), less than 10 nM.

As for `Cc1cc(NC(=O)Nc2cnc(C#N)cn2)ccc1CCNCc1ccc(F)cc1` [Example 36, 1-(5-Cyano-pyrazin-2-yl)-3-{4-[2-(4-fluoro-benzylamino)-ethyl]-3-methyl-phenyl}-urea hydrochloride], the IC50 on Chk-1 kinase (setting [1]) was found to be 10 nM.

For `COc1cc(CCNCc2ccccc2)ccc1NC(=O)Nc1cnc(C)cn1` [Example 32, 1-[4-(2-Benzylamino-ethyl)-2-methoxy-phenyl]-3-(5-methyl-pyrazin-2-yl)-urea hydrochloride], the IC50 amounted to 27 nM at Chk-1 kinase (setting [1]) and 27 nM on Chk-1 kinase (comparative tests, Example 70, read-out: Chk-1 IC50). Besides, the “fold improvement in potency against Chk-1” value at Chk-1 kinase (relative to Compound 338 of WO02/070494 (alkylene chain 1 to 2 carbon atoms)) is reported as approximately 3 fold.

As for `COc1cc(CNCc2cccc(F)c2)ccc1NC(=O)Nc1cnc(C#N)cn1` [Example 58, 1-(5-Cyano-pyrazin-2-yl)-3-{4-[(3-fluoro-benzylamino)-methyl]-2-methoxy-phenyl}-urea hydrochloride], the half-inhibitory concentration (IC50) on Chk-1 kinase (setting [1]) worked out at 21 nM.

Regarding `COc1cc(OCCNCc2ccc(F)cc2)c(Cl)cc1NC(=O)Nc1cnc(C#N)cn1` [Example 47, 1-{5-Chloro-4-[2-(4-fluoro-benzylamino)-ethoxy]-2-methoxy-phenyl}-3-(5-cyano-pyrazin-2-yl)-urea hydrochloride], the results for the IC50 on Chk-1 kinase (setting [1]) and at Chk-1 kinase (setting [2]) were 8.4 nM and less than 10 nM, respectively.

On to `COc1ccccc1CNCc1ccc(NC(=O)Nc2cnc(C#N)cn2)c(OC)c1` [Example 62, 1-(5-Cyano-pyrazin-2-yl)-3-{2-methoxy-4-[(2-methoxy-benzylamino)-methyl]-phenyl}-urea], for which the IC50 at Chk-1 kinase (setting [1]) was 7.8 nM; at Chk-1 kinase (setting [2]), less than 10 nM.

For `COc1cc(CNCc2ccccc2F)ccc1NC(=O)Nc1cnc(C#N)cn1` [Example 59, 1-(5-Cyano-pyrazin-2-yl)-3-{4-[(2-fluoro-benzylamino)-methyl]-2-methoxy-phenyl}-urea hydrochloride], the IC50 on Chk-1 kinase (setting [1]) was 13 nM.
